Consider five compounds from ChEMBL document CHEMBL4425184, “C15-methoxyphenylated 18-deoxy-herbimycin A analogues, their in vitro anticancer activity and heat shock protein 90 binding affinity” (Bioorg Med Chem Lett, 2016).

Assay [1] addresses T1, Heat shock protein HSP 90-alpha (Homo sapiens, UniProt P07900). Nature of the assay: Displacement of fluorescent labelled-VER00051001 from N-terminal ATP-binding site of human recombinant HSP90A expressed in Escherichia coli measured after 29 hrs by fluorescence polarization assay. (Polarisation of emitted light reports the rotation of a fluorescent probe.)
For assay [2], the target named is T1, Heat shock protein HSP 90-alpha. Kind of assay: Displacement of fluorescent labelled-VER00051001 from N-terminal ATP-binding site of human recombinant HSP90A expressed in Escherichia coli measured after 48 hrs by fluorescence polarization assay.
The test system of assay [3] is A2780. Nature of the assay: Antiproliferative activity against human A2780 assessed as reduction in cell viability measured after 96 hrs by MTT assay. Type of assay: functional, cell-based. The following applies: A2780, 96 h. Background: Tetrazolium dyes change colour on reduction, which living cells bring about.
For assay [4], the system named is HCT-116. Kind of assay: Antiproliferative activity against human HCT116 assessed as reduction in cell viability measured after 96 hrs by MTT assay. The class given is functional, cell-based. As to conditions: HCT-116, 96 h.
Assay [5] concerns BGC-823. Kind of assay: Antiproliferative activity against human BGC823 assessed as reduction in cell viability measured after 96 hrs by MTT assay. Type of assay: functional, cell-based. As to conditions: BGC-823, 96 h.
In assay [6] the target is T1, Heat shock protein HSP 90-alpha. Kind of assay: Displacement of fluorescent labelled-VER00051001 from N-terminal ATP-binding site of human recombinant HSP90A expressed in Escherichia coli measured after 44 hrs by fluorescence polarization assay.
Assay [7] has the same target. Kind of assay: Displacement of fluorescent labelled-VER00051001 from N-terminal ATP-binding site of human recombinant HSP90A expressed in Escherichia coli measured after 32 hrs by fluorescence polarization assay.
The test system of assay [8] is MCF7. Nature of the assay: Antiproliferative activity against human MCF7 assessed as reduction in cell viability measured after 96 hrs by MTT assay. Type of assay: functional, cell-based. The following applies: MCF7, 96 h.
In assay [9] the test system is SW1990. Kind of assay: Antiproliferative activity against human SW1990 assessed as reduction in cell viability measured after 96 hrs by MTT assay. The class given is functional, cell-based. The following applies: SW1990, 96 h.
The target in assay [10] is T1, Heat shock protein HSP 90-alpha. Kind of assay: Displacement of fluorescent labelled-VER00051001 from N-terminal ATP-binding site of human recombinant HSP90A expressed in Escherichia coli measured after 20 hrs by fluorescence polarization assay.
For assay [11], the system named is A-375. Nature of the assay: Antiproliferative activity against human A375 assessed as reduction in cell viability measured after 96 hrs by MTT assay. Type of assay: functional, cell-based. As to conditions: A-375, 96 h.

In general, IC50 refers to the concentration needed to halve the response being measured. Consider `COc1ccc([C@H]2c3cccc(c3O)NC(=O)/C(C)=C/C=C\[C@H](OC)[C@@H](OC(N)=O)/C(C)=C/[C@H](C)[C@@H](OC)[C@@H](OC)C[C@@H]2C)cc1`, for which the IC50 in [1] amounted to 0.102 µM; in assay [2], 0.0971 µM; in assay [3], 2.38 µM; in assay [4] it was 6.34 µM; in assay [5], 6.47 µM; in assay [6], 0.0985 µM. Moreover, the IC50 in assay [7] came to 0.101 µM; in assay [8] it was 9.58 µM; in assay [9] it was 3.37 µM; in [10], 0.119 µM; in assay [11] it was 2.56 µM.
For `COc1ccc([C@H]2c3cccc(c3O)NC(=O)/C(C)=C/CC[C@H](OC)[C@@H](OC(N)=O)/C(C)=C/[C@H](C)[C@@H](O)[C@@H](OC)C[C@@H]2C)cc1`, the IC50 in assay [1] is over 1 µM; in assay [2], over 1 µM; in assay [3], over 20 µM; in assay [4] it was over 20 µM; in assay [5], over 20 µM; in assay [6] it was over 1 µM. Further, the half-maximal inhibitory concentration (IC50) in assay [7] was over 1 µM; in [8], over 20 µM; in [9], over 20 µM; in assay [10] it was over 1 µM; in assay [11], over 20 µM.
As for `COc1ccc([C@H]2c3cccc(c3O)NC(=O)/C(C)=C/CC[C@H](OC)[C@@H](OC(N)=O)/C(C)=C/[C@H](C)[C@@H](OC)[C@@H](OC)C[C@@H]2C)cc1`, the IC50 in [1] is over 1 µM; in assay [2] it was over 1 µM; in [3], over 20 µM; in assay [4], over 20 µM; in [5] it was over 20 µM; in [6], over 1 µM. The 50% inhibitory concentration (IC50) was over 1 µM in assay [7]; over 20 µM in assay [8]; over 20 µM in assay [9]; over 1 µM in assay [10]; over 20 µM in assay [11].
As for `CO[C@H]1/C=C\C=C(/C)C(=O)NC2=CC(=O)C=C(C2=O)[C@H](OC)[C@@H](C)C[C@H](OC)[C@H](O)[C@@H](C)/C=C(\C)[C@@H]1OC(N)=O` [HERBIMYCIN C], the concentration for half-maximal inhibition (IC50) in assay [1] was 0.0197 µM; in assay [2], 0.0168 µM; in assay [3], 3.01 µM; in [4], 9.39 µM; in assay [5] it was 3.99 µM; in assay [6], 0.0181 µM. For the same compound, the IC50 in assay [7] turned out to be 0.0184 µM; in assay [8], 5.07 µM; in assay [9] it was 8.62 µM; in [10] it was 0.0222 µM; in [11] it was 2.43 µM.
Regarding `COc1ccc([C@H]2c3cccc(c3O)NC(=O)/C(C)=C/C=C\[C@H](OC)[C@@H](OC(N)=O)/C(C)=C/[C@H](C)[C@@H](O)[C@@H](OC)C[C@@H]2C)cc1`, the 50% inhibitory concentration (IC50) in assay [1] amounted to 0.0594 µM; in assay [2] it was 0.053 µM; in assay [3], 0.47 µM; in assay [4], 0.44 µM; in [5], 0.63 µM; in assay [6] it was 0.0567 µM. Moreover, the IC50 in assay [7] was 0.0558 µM; in assay [8], 0.45 µM; in assay [9], 0.8 µM; in assay [10], 0.0645 µM; in assay [11] it was 0.45 µM.
